US20230067929A1, “HETEROCYCLIC DERIVATIVES, PHARMACEUTICAL COMPOSITIONS AND THEIR USE IN THE TREATMENT, AMELIORATION OR PREVENTION OF CANCER” (Tolremo Therapeutics AG, priority 2018, published 2023)

Biological target: T1, TRIM33(PHD, Bromo.) (Homo sapiens, UniProt Q9UPN9)
T1 construct: TRIM33(PHD, Bromo.)
T1 sequence (Q9UPN9 1-1127): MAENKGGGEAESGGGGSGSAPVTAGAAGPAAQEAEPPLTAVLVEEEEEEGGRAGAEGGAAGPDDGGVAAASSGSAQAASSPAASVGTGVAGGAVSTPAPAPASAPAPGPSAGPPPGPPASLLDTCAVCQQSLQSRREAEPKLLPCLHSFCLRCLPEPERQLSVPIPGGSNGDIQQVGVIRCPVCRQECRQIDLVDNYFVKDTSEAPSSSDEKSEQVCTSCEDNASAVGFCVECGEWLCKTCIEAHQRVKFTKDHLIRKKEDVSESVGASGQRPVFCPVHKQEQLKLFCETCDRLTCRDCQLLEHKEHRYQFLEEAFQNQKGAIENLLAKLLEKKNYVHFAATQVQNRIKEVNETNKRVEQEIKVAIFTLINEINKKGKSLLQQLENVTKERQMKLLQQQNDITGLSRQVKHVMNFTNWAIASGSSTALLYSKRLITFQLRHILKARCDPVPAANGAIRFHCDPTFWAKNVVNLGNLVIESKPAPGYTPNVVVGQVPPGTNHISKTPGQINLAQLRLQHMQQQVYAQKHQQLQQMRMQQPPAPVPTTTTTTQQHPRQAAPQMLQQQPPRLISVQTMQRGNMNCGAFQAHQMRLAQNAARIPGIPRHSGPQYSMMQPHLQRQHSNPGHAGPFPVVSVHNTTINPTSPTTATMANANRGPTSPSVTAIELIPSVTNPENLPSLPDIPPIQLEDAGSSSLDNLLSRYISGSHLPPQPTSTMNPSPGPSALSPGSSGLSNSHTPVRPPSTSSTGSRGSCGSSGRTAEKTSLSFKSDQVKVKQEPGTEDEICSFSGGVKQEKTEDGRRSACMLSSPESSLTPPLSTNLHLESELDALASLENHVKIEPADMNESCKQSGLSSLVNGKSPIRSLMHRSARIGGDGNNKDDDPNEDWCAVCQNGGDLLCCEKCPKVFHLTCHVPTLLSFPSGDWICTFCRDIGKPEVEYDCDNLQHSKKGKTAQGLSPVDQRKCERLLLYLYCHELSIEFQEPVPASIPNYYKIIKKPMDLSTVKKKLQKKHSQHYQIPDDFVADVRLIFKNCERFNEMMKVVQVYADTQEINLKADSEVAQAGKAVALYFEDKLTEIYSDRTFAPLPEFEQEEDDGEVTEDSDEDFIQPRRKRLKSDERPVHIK
Experiment: BromoKdMAX (BROMOscan) TRIM33(PHD, Bromo.)
Format: binding
Settings: TRIM33(PHD, Bromo.) (Entrez TRIM33)
Method: A BromoKdMAX was performed at DiscoverX.
BROMOscan™ is a novel industry leading platform for identifying small molecule bromodomain inhibitors. Based on proven KINOMEscan™ technology, BROMOscan™ employs a proprietary ligand binding site-directed competition assay to quantitatively measure interactions between test compounds and bromodomains. This robust and reliable assay panel is suitable for high throughput screening and delivers quantitative ligand binding data to facilitate the identification and optimization of potent and selective small molecule bromodomain inhibitors.
For the Bromodomain assays, T7 phage strains displaying bromodomains were grown in parallel in 24-well blocks in an E. coli host derived from the BL21 strain. E. coli were grown to log-phase and infected with T7 phage from a frozen stock (multiplicity of infection=0.4) and incubated with shaking at 32° C. until lysis (90-150 minutes). The lysates were centrifuged (5,000×g) and filtered (0.2 μm) to remove cell debris. […] The liganded beads were blocked with excess biotin and washed with blocking buffer (SeaBlock (Pierce), 1% BSA, 0.05% Tween 20, 1 mM DTT) to remove unbound ligand and to reduce non-specific phage binding. […] Kds were determined using an 11-point 3-fold compound dilution series with one DMSO control point. […] The bromodomain concentration in the eluates was measured by qPCR.

## COc1cncc(-c2cc(Nc3cccc(F)c3)nc([C@@H]3CC[C@H](C)N(C(C)=O)C3)n2)c1 [Compound 00212, (−)-1-((2S,5R)-5-(4-((3-fluorophenyl)amino)-6-(5-methoxypyridin-3-yl)pyrimidin-2-yl)-2-methylpiperidin-1-yl)ethan-1-one]
  Kd: > 10 µM
